Measurements published in article PMC7714403 (JCI Insight, 2020).

What was measured:
[1] = molecular target: Wee1 (Homo sapiens, UniProt P30291); assay: KiNativ, OCI cells live cell; format: cell-based; conditions: 2 h, labeling site Lys2, peptide […]
[2] = test system: OCI-AML3 cells; assay: CD11b expression assay; format: cell-based, human; conditions: 20 nM and 50 nM, 72 hours
Procedure: (§1) Apoptosis and CD11b expression assays
(§2) At indicated time points, cells were collected and washed with PBS. CD11b expression was measured using anti-CD11b -APC antibody (BioLegend, San Diego, CA). Each sample was suspended in 100uL of FACS buffer (PBS + 4% FBS) with 1uL of antibody, incubated on ice for 15 minutes in the dark and washed once in PBS. DAPI (final concentration 1ug/mL [ThermoFisher Scientific]) was added to each sample as a viability dye. For apoptosis assay, cells were incubated with annexin V-APC (BioLegend) according to manufacturer’s instructions. CD11b expression and apoptosis were measured by BD LSR II flow cytometer. Two-color cytometry was performed, and data were […]
(§3) points, cells were collected and washed with 0.1% EDTA PBS (Ricca Chemical Company, Arlington, TX) followed by only PBS. Cells were then fixed on ice with ice-cold 70% ethanol for 30 minutes . Cells were either stored at -20°C for up to 1 month or processed immediately. Cells were spun down at 450 x g for 10 minutes and stained

[3] = test system: MV4-11, MOLM13, and MOLM13-RES cells; assay: CD11b expression assay; format: cell-based, human; conditions: 20 nM, 72 hours
Procedure: as §1, §2, §3

[4] = test system: cord blood CD34+ cells; assay: CFU assay, normal cells; format: cell-based, human; conditions: 2 donors
Procedure: For human primary CFU assays, cells were cultured in MethoCult H4035 Optimum without EPO (Stemcell Technologies). For mouse primary CFU assays, cells were directly cultured in MethoCult M3231 (Stemcell Technologies) supplemented with 45 ng/mL of murine IL-6 (mIL-6), mIL-3, and mSCF. Both human and mouse primary cells 10,000 cells were plated in duplicate for each drug concentration. For cell line CFU assays, MV4-11 cells were treated with drugs in the presence of 20 ng/mL IL-3, GM-CSF, or FGF2. Cells were plated in MethoCult H4230 (Stemcell Technologies) in duplicates at 250 cells/plate. Plates were placed in a 37°C incubator for 7 or 14 days for human cell lines and for mouse or human primary cells, respectively. Colonies were identified as clusters containing 40 or more cells. For CFU assays using human primary CD34^+ cells, umbilical cord blood was obtained from the OSU Comprehensive Cancer Center (CCC) Leukemia Tissue Bank Shared Resource, and mononuclear cells were isolated by using density gradient centrifugation. CD34^+ cells were purified using the CD34 UltraPure MicroBead Kit (Miltenyi Biotec) according to the manufacturer’s instructions. CFU assay with CD34^+ cells was performed as described above, and the total number of colonies were counted after 7–10 days.

[5] = molecular target: CDK4 (Homo sapiens, UniProt P11802); assay: KiNativ, OCI cells live cell; format: cell-based; conditions: 2 h, labeling site Lys2, peptide […]
Chain of CDK4 (P11802 2-303 limits assumed): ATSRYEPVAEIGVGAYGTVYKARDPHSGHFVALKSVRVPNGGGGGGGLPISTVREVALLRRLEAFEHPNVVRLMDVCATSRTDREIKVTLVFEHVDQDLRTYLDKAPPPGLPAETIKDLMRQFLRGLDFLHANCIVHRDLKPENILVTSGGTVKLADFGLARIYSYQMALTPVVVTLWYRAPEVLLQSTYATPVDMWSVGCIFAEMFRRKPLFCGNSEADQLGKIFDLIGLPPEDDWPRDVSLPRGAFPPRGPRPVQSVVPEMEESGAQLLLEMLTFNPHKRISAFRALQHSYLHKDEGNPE

[6] = molecular target: T1, ULK1 (Homo sapiens, UniProt O75385); assay: KiNativ, OCI cells live cell; format: cell-based
T1 sequence (O75385 1-1050): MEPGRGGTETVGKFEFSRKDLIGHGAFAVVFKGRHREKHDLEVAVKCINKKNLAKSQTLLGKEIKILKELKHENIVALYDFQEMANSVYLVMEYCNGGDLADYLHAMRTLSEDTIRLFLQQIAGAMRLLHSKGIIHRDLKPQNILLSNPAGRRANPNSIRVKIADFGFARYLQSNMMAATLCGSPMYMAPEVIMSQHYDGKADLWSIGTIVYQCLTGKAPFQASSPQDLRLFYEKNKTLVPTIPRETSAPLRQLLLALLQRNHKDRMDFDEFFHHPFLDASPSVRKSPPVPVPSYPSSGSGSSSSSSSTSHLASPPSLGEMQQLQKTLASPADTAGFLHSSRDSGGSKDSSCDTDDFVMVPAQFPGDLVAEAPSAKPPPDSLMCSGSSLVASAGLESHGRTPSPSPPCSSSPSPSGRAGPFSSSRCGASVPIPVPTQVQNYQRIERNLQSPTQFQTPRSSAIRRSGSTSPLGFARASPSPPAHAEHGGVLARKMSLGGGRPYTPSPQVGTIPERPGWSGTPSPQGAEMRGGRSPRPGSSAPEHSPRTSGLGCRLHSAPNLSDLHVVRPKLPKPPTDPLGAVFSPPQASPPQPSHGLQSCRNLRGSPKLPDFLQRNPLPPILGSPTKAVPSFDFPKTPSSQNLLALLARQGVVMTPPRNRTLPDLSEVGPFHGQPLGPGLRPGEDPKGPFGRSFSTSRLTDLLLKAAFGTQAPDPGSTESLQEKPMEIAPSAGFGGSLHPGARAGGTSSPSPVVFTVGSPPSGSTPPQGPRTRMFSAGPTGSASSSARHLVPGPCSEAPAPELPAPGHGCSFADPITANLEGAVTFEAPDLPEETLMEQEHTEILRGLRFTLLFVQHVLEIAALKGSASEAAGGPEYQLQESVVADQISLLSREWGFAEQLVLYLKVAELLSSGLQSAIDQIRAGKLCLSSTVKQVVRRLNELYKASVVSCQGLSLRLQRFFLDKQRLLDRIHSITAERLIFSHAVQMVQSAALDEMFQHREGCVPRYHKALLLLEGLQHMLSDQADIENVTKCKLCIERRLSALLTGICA

[7] = molecular target: ARAF (Homo sapiens, UniProt P10398); assay: KiNativ, OCI cells live cell; format: cell-based; conditions: 2 h, labeling site Lys2, peptide […]
Chain of ARAF (P10398 whole entry): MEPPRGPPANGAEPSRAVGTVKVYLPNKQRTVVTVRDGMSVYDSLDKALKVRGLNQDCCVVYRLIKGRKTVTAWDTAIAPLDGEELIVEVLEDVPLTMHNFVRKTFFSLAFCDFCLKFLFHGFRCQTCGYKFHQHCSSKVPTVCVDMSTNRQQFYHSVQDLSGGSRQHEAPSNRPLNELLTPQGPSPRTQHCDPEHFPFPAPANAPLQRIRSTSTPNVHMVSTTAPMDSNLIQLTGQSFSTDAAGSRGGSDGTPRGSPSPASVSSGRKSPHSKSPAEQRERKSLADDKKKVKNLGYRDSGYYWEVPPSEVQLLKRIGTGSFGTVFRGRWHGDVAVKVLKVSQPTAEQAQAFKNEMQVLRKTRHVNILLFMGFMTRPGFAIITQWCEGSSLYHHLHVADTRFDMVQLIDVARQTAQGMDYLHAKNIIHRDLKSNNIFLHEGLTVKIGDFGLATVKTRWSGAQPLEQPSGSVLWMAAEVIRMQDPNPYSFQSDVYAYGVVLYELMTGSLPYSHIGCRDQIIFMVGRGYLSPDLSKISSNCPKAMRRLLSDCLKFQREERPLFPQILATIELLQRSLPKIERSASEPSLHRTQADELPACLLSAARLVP

[8] = molecular target: T2, ABL1 (Homo sapiens, UniProt P00519); assay: KdELECT binding assay
T2 construct: purchased Eurofins DiscoverX
T2 sequence (P00519 whole entry): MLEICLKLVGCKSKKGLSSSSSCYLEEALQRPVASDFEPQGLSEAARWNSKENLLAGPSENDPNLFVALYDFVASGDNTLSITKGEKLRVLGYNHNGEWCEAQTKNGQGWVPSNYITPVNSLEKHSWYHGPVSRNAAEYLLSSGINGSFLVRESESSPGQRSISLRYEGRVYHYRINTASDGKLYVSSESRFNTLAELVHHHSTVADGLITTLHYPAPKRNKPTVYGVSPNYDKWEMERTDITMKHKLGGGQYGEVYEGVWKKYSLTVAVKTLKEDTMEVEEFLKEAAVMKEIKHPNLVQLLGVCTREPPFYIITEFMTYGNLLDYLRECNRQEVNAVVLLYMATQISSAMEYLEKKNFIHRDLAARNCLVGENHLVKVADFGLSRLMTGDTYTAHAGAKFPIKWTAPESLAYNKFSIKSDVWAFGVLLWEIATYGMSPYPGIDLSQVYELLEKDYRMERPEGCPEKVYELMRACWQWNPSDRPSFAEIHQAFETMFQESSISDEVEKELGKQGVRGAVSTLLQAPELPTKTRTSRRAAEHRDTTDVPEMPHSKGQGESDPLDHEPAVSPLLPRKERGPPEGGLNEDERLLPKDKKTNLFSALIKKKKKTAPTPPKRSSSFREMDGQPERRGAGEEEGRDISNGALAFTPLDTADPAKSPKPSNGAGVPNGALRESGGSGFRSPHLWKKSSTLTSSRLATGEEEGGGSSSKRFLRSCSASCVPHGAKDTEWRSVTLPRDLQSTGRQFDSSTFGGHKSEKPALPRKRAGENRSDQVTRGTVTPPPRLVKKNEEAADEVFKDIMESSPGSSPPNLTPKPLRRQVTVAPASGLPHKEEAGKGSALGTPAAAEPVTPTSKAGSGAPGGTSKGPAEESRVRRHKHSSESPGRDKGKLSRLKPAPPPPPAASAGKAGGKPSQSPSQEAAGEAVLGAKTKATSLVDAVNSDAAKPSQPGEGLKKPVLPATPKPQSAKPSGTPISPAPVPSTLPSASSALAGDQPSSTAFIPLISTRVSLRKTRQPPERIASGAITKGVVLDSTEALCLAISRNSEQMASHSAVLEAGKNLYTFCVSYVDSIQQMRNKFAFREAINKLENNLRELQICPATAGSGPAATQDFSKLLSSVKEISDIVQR

[9] = molecular target: IKKe (Homo sapiens, UniProt Q14164); assay: KiNativ, OCI cells live cell; format: cell-based; conditions: 2 h, labeling site Lys1, peptide […]
Chain of IKKe (Q14164 whole entry): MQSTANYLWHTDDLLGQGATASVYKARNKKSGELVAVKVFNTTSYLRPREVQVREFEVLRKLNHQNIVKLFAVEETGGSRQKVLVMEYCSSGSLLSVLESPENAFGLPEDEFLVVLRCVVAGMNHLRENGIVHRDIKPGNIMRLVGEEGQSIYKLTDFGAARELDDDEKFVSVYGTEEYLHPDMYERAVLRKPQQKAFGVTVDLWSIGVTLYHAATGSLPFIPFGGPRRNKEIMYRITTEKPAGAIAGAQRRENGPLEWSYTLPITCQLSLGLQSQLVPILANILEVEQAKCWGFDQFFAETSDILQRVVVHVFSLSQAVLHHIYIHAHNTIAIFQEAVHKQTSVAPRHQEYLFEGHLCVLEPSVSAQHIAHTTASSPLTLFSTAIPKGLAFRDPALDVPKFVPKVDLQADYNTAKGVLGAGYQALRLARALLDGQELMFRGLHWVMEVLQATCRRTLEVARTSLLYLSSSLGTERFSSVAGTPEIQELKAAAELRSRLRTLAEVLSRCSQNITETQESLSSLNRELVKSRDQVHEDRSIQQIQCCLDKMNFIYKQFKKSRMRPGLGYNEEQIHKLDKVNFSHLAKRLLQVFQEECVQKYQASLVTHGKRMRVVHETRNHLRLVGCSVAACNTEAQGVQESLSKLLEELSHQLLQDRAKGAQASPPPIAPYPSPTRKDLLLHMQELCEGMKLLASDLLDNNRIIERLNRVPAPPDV

[10] = molecular target: T3, JAK2 (Homo sapiens, UniProt O60674); assay: KdELECT binding assay
T3 construct: purchased Eurofins DiscoverX

[11] = test system: PKCa, PKCg; assay: KiNativ, OCI cells live cell; format: cell-based, human; conditions: labeling site Other, peptide NLIPMDPNGLSDPYVKLK
[12] = molecular target: CCRK (Homo sapiens, UniProt Q8IZL9); assay: KiNativ, OCI cells live cell; format: cell-based; conditions: 2 h, labeling site Lys2, peptide […]
Chain of CCRK (Q8IZL9 whole entry): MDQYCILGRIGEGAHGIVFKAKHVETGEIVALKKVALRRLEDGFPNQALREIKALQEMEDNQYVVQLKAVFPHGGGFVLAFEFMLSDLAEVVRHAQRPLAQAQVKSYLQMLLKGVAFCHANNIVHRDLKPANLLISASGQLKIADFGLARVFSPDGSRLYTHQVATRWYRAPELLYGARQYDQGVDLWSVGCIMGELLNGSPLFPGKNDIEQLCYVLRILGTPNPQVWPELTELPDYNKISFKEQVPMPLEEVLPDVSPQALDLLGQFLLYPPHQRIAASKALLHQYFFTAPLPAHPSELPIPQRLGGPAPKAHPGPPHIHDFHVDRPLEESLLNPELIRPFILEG

[13] = molecular target: PIP4K2A (Homo sapiens, UniProt P48426); assay: KiNativ, OCI cells live cell; format: cell-based; conditions: 2 h, labeling site ATP, peptide […]
Chain of PIP4K2A (P48426 whole entry, the tested form may be a part): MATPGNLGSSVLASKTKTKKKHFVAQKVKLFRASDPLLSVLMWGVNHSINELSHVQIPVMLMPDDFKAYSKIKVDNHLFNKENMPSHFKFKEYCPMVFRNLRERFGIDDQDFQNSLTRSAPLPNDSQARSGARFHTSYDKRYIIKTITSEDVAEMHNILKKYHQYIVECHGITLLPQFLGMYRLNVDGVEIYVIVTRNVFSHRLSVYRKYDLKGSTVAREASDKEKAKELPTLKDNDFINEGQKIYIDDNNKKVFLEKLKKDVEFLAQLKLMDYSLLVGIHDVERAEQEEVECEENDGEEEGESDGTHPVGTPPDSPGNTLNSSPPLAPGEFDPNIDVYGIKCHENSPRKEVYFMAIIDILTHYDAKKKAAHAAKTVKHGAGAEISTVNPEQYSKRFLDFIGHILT

[14] = molecular target: T4, JAK2 domain2 (Homo sapiens, UniProt O60674); assay: KiNativ, OCI cells live cell; format: cell-based; conditions: labeling site Activation Loop, peptide IGDFGLTKVLPQDKEYYK
T4 construct: JAK2 domain2

Chain of Wee1 (P30291 whole entry): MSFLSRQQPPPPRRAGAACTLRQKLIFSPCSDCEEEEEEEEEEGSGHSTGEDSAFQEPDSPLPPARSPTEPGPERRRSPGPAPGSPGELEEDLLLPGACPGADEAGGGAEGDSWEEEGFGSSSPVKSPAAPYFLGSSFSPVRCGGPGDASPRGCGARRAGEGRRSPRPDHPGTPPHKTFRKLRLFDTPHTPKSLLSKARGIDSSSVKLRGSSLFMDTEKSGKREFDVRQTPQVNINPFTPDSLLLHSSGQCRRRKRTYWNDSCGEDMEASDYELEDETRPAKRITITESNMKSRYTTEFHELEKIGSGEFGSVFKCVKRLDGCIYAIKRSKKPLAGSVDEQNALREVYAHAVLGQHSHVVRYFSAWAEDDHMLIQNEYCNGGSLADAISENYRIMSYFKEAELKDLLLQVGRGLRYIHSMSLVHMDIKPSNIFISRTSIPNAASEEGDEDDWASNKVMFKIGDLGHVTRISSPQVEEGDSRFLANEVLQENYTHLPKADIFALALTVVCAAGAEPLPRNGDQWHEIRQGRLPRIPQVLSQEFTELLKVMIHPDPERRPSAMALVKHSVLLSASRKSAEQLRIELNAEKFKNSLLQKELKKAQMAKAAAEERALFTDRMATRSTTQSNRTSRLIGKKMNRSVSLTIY

## CN1CCN(Cc2ccc(Nc3ncc(Cl)c(Nc4ccccc4S(=O)(=O)N(C)C)n3)cc2)CC1 [TP-0903]
[1]
  inhibition at 0.1 µM: 67.8%
[2]
  CD11b expression: increase
[3]
  Cell surface expression of CD11b: increased
[4]
  Concentration inhibiting colony formation of CD34+ cells: 0.2 µM
[5]
  inhibition at 0.1 µM: 24.3%
[6]; labeling site Lys1, peptide HDLEVAVKCINKK
  Inhibition: 23.3%
[6]; labeling site Lys2, peptide DLKPQNILLSNPAGR
  Inhibition: 59.5%
[7]
  inhibition at 0.1 µM: -0.7%
[8]
  Kd: < 5 nM
[9]
  inhibition at 0.1 µM: 30.5%
[10]
  Kd: < 5 nM
[11]
  Inhibition: -15.0%
[12]
  inhibition at 0.1 µM: 58.1%
[13]
  inhibition at 0.1 µM: -17.8%
[14]
  Inhibition: 36.2%
